Data published in PubChem BioAssay (NCI).
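Where inhibition never reached the appropriate level, the endpoint shown equals the highest concentration tested. Otherwise, values were interpolated linearly from a five-concentration, 48-hour dose response in 96-well plates. GI50 = concentration required for 50% inhibition of growth. TGI: concentration producing complete growth inhibition.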

Tests used:
Assay in all cases: NCI-60 cell line screen, 48 h
[1] = system: 786-0 renal
[2] = system: A498 renal
[3] = system: A549 NSCLC
[4] = system: ACHN renal
[5] = system: BT-549 breast
[6] = system: CAKI-1 renal
[7] = system: CCRF-CEM leukemia
[8] = system: COLO 205 colon
[9] = system: DU-145 prostate
[10] = system: EKVX NSCLC
[11] = system: HCC-2998 colon
[12] = system: HCT-116 colon
[13] = system: HCT-15 colon
[14] = system: HL-60(TB) leukemia
[15] = system: HOP-62 NSCLC
[16] = system: HOP-92 NSCLC
[17] = system: HS 578T breast
[18] = system: HT29 colon
[19] = system: IGROV1 ovarian
[20] = system: K-562 leukemia
[21] = system: KM12 colon
[22] = system: LOX IMVI melanoma
[23] = system: M14 melanoma
[24] = system: MALME-3M melanoma
[25] = system: MCF7 breast
[26] = system: MDA-MB-231 breast
[27] = system: MDA-MB-435
[28] = system: MOLT-4 leukemia
[29] = system: NCI-H226 lung
[30] = system: NCI-H23 lung
[31] = system: NCI-H460 lung
[32] = system: NCI-H522 lung
[33] = system: NCI/ADR-RES ovarian
[34] = system: OVCAR-3 ovarian
[35] = system: OVCAR-4 ovarian
[36] = system: OVCAR-5 ovarian
[37] = system: OVCAR-8 ovarian
[38] = system: PC-3 prostate
[39] = system: RPMI-8226 leukemia
[40] = system: RXF 393 renal
[41] = system: SF-268 CNS
[42] = system: SF-295 CNS
[43] = system: SF-539 CNS
[44] = system: SK-MEL-2 melanoma
[45] = system: SK-MEL-28 melanoma
[46] = system: SK-MEL-5 melanoma
[47] = system: SK-OV-3 ovarian
[48] = system: SN12C renal
[49] = system: SNB-19 CNS
[50] = system: SNB-75 CNS
[51] = system: SR leukemia
[52] = system: SW-620 colon
[53] = system: T-47D breast
[54] = system: TK-10 renal
[55] = system: U251 CNS
[56] = system: UACC-257 melanoma
[57] = system: UACC-62 melanoma
[58] = system: UO-31 renal

## CCCCCCCCCCCC[n+]1ccccc1 (tested in a mixture with another compound)
[1]
  GI50: 1950 nM
  TGI: 5920 nM
[2]
  GI50: 1840 nM
  TGI: 7250 nM
[3]
  GI50: 1680 nM
  TGI: 4430 nM
[4]
  GI50: 2250 nM
  TGI: 14100 nM
[5]
  GI50: 268 nM
  TGI: 1060 nM
[6]
  GI50: 1010 nM
  TGI: 9030 nM
[7]
  GI50: 724 nM
  TGI: 4530 nM
[8]
  GI50: 404 nM
  TGI: 1520 nM
[9]
  GI50: 1500 nM
  TGI: 9880 nM
[10]
  GI50: 428 nM
  TGI: 5130 nM
[11]
  GI50: 646 nM
  TGI: 2120 nM
[12]
  GI50: 548 nM
  TGI: 2620 nM
[13]
  GI50: 3800 nM
  TGI: 19300 nM
[14]
  GI50: 253 nM
  TGI: 1040 nM
[15]
  GI50: 1150 nM
  TGI: 3590 nM
[16]
  GI50: 290 nM
  TGI: 2430 nM
[17]
  GI50: 1710 nM
  TGI: 5150 nM
[18]
  GI50: 280 nM
  TGI: 4210 nM
[19]
  GI50: 519 nM
  TGI: 2280 nM
[20]
  GI50: 392 nM
  TGI: 11000 nM
[21]
  GI50: 380 nM
  TGI: 1590 nM
[22]
  GI50: 691 nM
  TGI: 2410 nM
[23]
  GI50: 1100 nM
[24]
  GI50: 633 nM
  TGI: 2770 nM
[25]
  GI50: 1040 nM
  TGI: 5500 nM
[26]
  GI50: 1220 nM
  TGI: 3370 nM
[27]
  GI50: 678 nM
  TGI: 2470 nM
[28]
  GI50: 1340 nM
  TGI: 4780 nM
[29]
  GI50: 1720 nM
  TGI: 10400 nM
[30]
  GI50: 655 nM
  TGI: 5480 nM
[31]
  GI50: 1330 nM
  TGI: 3900 nM
[32]
  GI50: 855 nM
  TGI: 5420 nM
[33]
  GI50: 14400 nM
  TGI: 52200 nM
[34]
  GI50: 722 nM
  TGI: 2440 nM
[35]
  GI50: 683 nM
  TGI: 12400 nM
[36]
  GI50: 1030 nM
  TGI: 5850 nM
[37]
  GI50: 777 nM
  TGI: 11300 nM
[38]
  GI50: 208 nM
  TGI: 937 nM
[39]
  GI50: 230 nM
  TGI: 1520 nM
[40]
  GI50: 682 nM
  TGI: 4440 nM
[41]
  GI50: 1200 nM
  TGI: 3440 nM
[42]
  GI50: 712 nM
  TGI: 2520 nM
[43]
  GI50: 1430 nM
  TGI: 3440 nM
[44]
  GI50: 1760 nM
  TGI: 5520 nM
[45]
  GI50: 1350 nM
  TGI: 3530 nM
[46]
  GI50: 342 nM
  TGI: 1360 nM
[47]
  GI50: 1160 nM
  TGI: 3740 nM
[48]
  GI50: 1190 nM
  TGI: 3430 nM
[49]
  GI50: 1290 nM
  TGI: 3480 nM
[50]
  GI50: 1080 nM
  TGI: 3840 nM
[51]
  GI50: 156 nM
  TGI: 3110 nM
[52]
  GI50: 1570 nM
  TGI: 10500 nM
[53]
  GI50: 375 nM
  TGI: 3940 nM
[54]
  GI50: 427 nM
  TGI: 1860 nM
[55]
  GI50: 443 nM
  TGI: 2200 nM
[56]
  GI50: 772 nM
  TGI: 2880 nM
[57]
  GI50: 1090 nM
  TGI: 2540 nM
[58]
  GI50: 2240 nM
  TGI: 14800 nM
